{"source": "patent US7795390B2", "about": "“Biological substance nesfatin and its related substances and uses thereof” (Teijin Pharma Limited, priority 2005, dated 2010)", "key": {"ICR mice": {"test_system": "ICR mice", "assay": "Intraperitoneal administration of partial peptides of nesfatin-1 / nesfatin-1M30 / NUCB1-M30 to ICR mice, food intake", "assay_type": "in vivo, mouse", "settings": "0-3 hours", "description": "Each peptide of nesfatin-1N23, nesfatin-1M30 and nesfatin-1C29 used was a synthetic peptide of which production was referred to Biologica Co., Ltd. and was purified by HPLC to a purity of 95% or higher. Each peptide was prepared in physiological saline so as to contain 50 nmol per 200 μl, which was used as the sample, and as the control sample physiological saline (Vehicle) alone was used. Using a tuberculin syringe equipped with a 25G needle, 200 μl each of the samples was administered once into the abdominal cavity of each mouse (5 animals per group), and the time of administration was immediately before the start (6 p.m.) of the dark period. Mice used were male ICR mice (Nippon SLC) and the housing condition was similar to those in Working Example 18.\nEach mouse that received administration was placed in an individual cage, and during 0-3 hours after the administration the weight decreased of the pellet food was measured to determine the amount of food intake. For testing of significant difference, analysis of variance was used.\nEach peptide was prepared in physiological saline so as to contain 10 pmol per 100 μl, which was used as the sample for administration, and as the control sample physiological saline (Vehicle) alone was used. The physiological saline as the control and the peptide samples prepared were intraperitoneally administered at 100 μl per mouse (6 animals per group). Mice used were male ICR mice (Nippon SLC) and the housing condition and the experimental condition were similar to those in Working Example 18.\nEach of the prepared human nesfatin-1M30 and mouse NUCB1-M30 was prepared in physiological saline so as to contain 10 pmol per 100 μl, which was used as the sample for administration.\nThe physiological saline as the control and the peptide sample prepared were intraperitoneally administered at 100 μl per mouse (n=6 per group). Mice used were male ICR mice (Nippon SLC) and the housing condition and the experimental condition were similar to those in Working Example 18."}, "Wistar rats": {"test_system": "Wistar rats", "assay": "Administration of nesfatin-1, nesfatin-2, nesfatin-3, nesfatin-2/3 into the third ventricle, amount of food intake", "assay_type": "in vivo, rat", "settings": "for amount of food intake: 25 pmol into the third ventricle before dark period, 0-1 hr and 1-3 hr, vs control", "description": "Samples used for intracerebral administration were PBS alone (vehicle group), or nesfatin-1, nesfatin-2, nesfatin-3 or nesfatin-2/3 prepared in Working Example 10 each dissolved in PBS, and 25 pmol was administered per individual into the third ventricle immediately before the dark period. Rats used were Wistar rats (purchased from Nippon SLC) and were housed as in Working Example 6, and among 8-9 week-old male Wistar rats, those individuals weighing 200-250 g were selected and used (N=5). The technique of intraventricular administration and the measurement of the amount of food intake in rats were carried out in a method similar to those in Working Example 6. In the measurement of the amount of food intake, the reduced amount of food at 1 hour after administration (0-1 hr) and 2 hours after administration (1-3 hrs) was determined as food intake.\nIn the same condition above, 1, 5 or 25 pmol of nesfatin-1 as a sample was administered per rat individual into the third ventricle immediately before the dark period. In this experiment, the amount of food intake was determined at 1 hour after administration (0-1 hr).\nThe experimental condition was similar to that in Working Example 12, and 5 pmol of nesfatin-1 was administered into the third ventricle of the rat brain immediately before the start of the dark period, the amount decreased of the food (the amount of food intake) during 1 hour immediately after administration (0-1 hr), during 2 hours from 1 hour after the administration (1-3 hr), during 3 hours from 3 hours after the administration (3-6 hr), and during 6 hours from 6 hours after the administration (6-12 hr) was measured as the amount of food intake. As the control group, the amount of food intake by individuals that received physiological saline alone was measured.\nThe experimental condition was similar to that in Working Example 12, and for a group that received 5 pmol of nesfatin-1 alone into the third ventricle of the rat brain immediately before the start of the dark period and a group that received 5 pmol of nesfatin-1 and 8 μg of anti-nesfatin-1 antibody (nesfatin-1 IgG), the amount of food intake for 1 hour after administration was measured and compared to that for the control group (physiological saline alone was administered). Also, for a group that received only leptin (Rat leptin: R & D Systems, 598-LP-01M) (1 μg) which is known to have an activity of suppressing food intake by intraventricular administration and a group that received leptin and anti-nesfatin-1 antibody, its effect on food intake was also studied."}, "[1]": {"settings": "10 pmol per 100 μl ip, partial peptides of nesfatin-1M30, vs saline"}, "[2]": {"settings": "10 pmol per 100 μl ip, Working Example 23, vs Vehicle"}, "[3]": {"settings": "50 nmol per 200 μl ip, vs Vehicle"}}, "data": [{"molecule": "N-LysGlnValIleGluValLeuGluThrAsp-C (KQVIEVLETD; listed as Mus musculus) [nesfatin-1M10M]", "values": [{"measurement": "amount of food intake", "setting": "ICR mice; [1]", "value": "significant effect of suppressing food intake"}]}, {"molecule": "N-ValLeuGluThrAspProHisPheArgGluLysLeuGlnLys-C (VLETDPHFREKLQK; listed as Mus musculus) [nesfatin-1M14]", "values": [{"measurement": "amount of food intake", "setting": "ICR mice; [1]", "value": "significant effect of suppressing food intake"}]}, {"molecule": "human nesfatin-1M30: human nesfatin-1M30 (SEQ ID NO: 39), chemical synthesis (PDTGLYYDEYLKQVIDVLETDKHFREKLQK; listed as Homo sapiens)", "values": [{"measurement": "amount of food intake", "setting": "ICR mice; [2]", "value": "significant effect of suppressing food intake"}]}, {"molecule": "mouse NUCB1-M30: site of mouse NUCB1 corresponding to nesfatin-1M30 (SEQ ID NO: 103) (PDTGLYYHRYLQEVINVLETDGHFREKLQA; listed as Mus musculus)", "values": [{"measurement": "amount of food intake", "setting": "ICR mice; [2]", "value": "significant effect of suppressing food intake"}]}, {"molecule": "nesfatin-1C29: amino acid numbers 54 to 82 of mouse nesfatin-1 (SEQ ID NO: 43) (ADIEEIRSGRLSQELDLVSHKVRTRLDEL; listed as Mus musculus)", "values": [{"measurement": "amount of food intake", "setting": "ICR mice; [3]", "value": "no significant decrease or enhancement in the amount of food intake"}]}, {"molecule": "nesfatin-1M16: 16-amino acid partial peptide of mouse nesfatin-1M30 (SEQ ID NO: 71) (PDTGLYYDEYLKQVIE; listed as Mus musculus)", "values": [{"measurement": "amount of food intake", "setting": "ICR mice; [1]", "value": "significant effect of suppressing food intake"}]}, {"molecule": "nesfatin-1M30: 30-amino acid partial peptide of mouse nesfatin-1 (SEQ ID NO: 41) (PDTGLYYDEYLKQVIEVLETDPHFREKLQK; listed as Mus musculus)", "values": [{"measurement": "amount of food intake", "setting": "ICR mice; [2]", "value": "significant effect of suppressing food intake"}, {"measurement": "amount of food intake", "setting": "ICR mice; [3]", "value": "significant decrease"}]}, {"molecule": "nesfatin-1N23: amino acid numbers 1 to 23 of mouse nesfatin-1 (SEQ ID NO: 42) (VPIDVDKTKVHNTEPVENARIEP; listed as Mus musculus)", "values": [{"measurement": "amount of food intake", "setting": "ICR mice; [3]", "value": "no significant decrease or enhancement in the amount of food intake"}]}, {"molecule": "leptin: Rat leptin: R & D Systems, 598-LP-01M; known to suppress food intake by intraventricular administration (protein) VPIHKVQDDTKTLIKTIVTRINDISHTQSVSARQRVTGLDFIPGLHPILSLSKMDQTLAVYQQILTSLPSQNVLQIAHDLENLRDLLHLLAFSKSCSLPQTRGLQKPESLDGVLEASLYSTEVVALSRLQGSLQDILQQLDLSPEC", "values": [{"measurement": "amount of food intake for 1 hour after administration", "setting": "Wistar rats; given alone into the third ventricle (nesfatin-1 5 pmol; leptin 1 μg), vs saline control", "value": "decreased"}]}, {"molecule": "nesfatin-3: 231 residues, amino acid Nos. 190 to 420 of nesfatin (SEQ ID NO: 17), cell-free protein synthesis, Met added (protein, listed as Rattus norvegicus, N-terminal Met added) EYLKTLSEEKRKEEEAKFAEMKRKHEDHPKVNHPGSKDQLKEVWEETDGLDPNDFDPKTFFKLHDVNNDGFLDEQELEALFTKELDKVYNPQNAEDDMIEMEEERLRMREHVMNEIDNNKDRLVTLEEFLRATEKKEFLEPDSWETLDQQQLFTEEELKEYESIIAIQESELKKKADELQKQKEELQRQHDHLEAQKQEYQQAVQQLEQKKFQQGIAPSGPAGELKFEPHT", "values": [{"measurement": "amount of food intake", "setting": "Wistar rats", "value": "did not exhibit any significant changes in the amount of food intake"}]}, {"molecule": "nesfatin-2/3: portion of the sequence consisting of nesfatin-2 and nesfatin-3 (SEQ ID NO: 47), cell-free protein synthesis (protein, listed as Rattus norvegicus) QEVGRLRMLIKAKLDALQDTGMNHHLLLKQFEHLNHQNPDTFESKDLDMLIKAATADLEQYDRTRHEEFKKYEMMKEHERREYLKTLSEEKRKEEEAKFAEMKRKHEDHPKVNHPGSKDQLKEVWEETDGLDPNDFDPKTFFKLHDVNNDGFLDEQELEALFTKELDKVYNPQNAEDDMIEMEEERLRMREHVMNEIDNNKDRLVTLEEFLRATEKKEFLEPDSWETLDQQQLFTEEELKEYESIIAIQESELKKKADELQKQKEELQRQHDHLEAQKQEYQQAVQQLEQKKFQQGIAPSGPAGELKFEPHT", "values": [{"measurement": "amount of food intake", "setting": "Wistar rats", "value": "did not exhibit any significant changes in the amount of food intake"}]}, {"molecule": "nesfatin-2: 79-residue peptide, amino acid Nos. 109 to 187 of nesfatin (SEQ ID NO: 16) (peptide, listed as Rattus norvegicus) QEVGRLRMLIKAKLDALQDTGMNHHLLLKQFEHLNHQNPDTFESKDLDMLIKAATADLEQYDRTRHEEFKKYEMMKEHE", "values": [{"measurement": "amount of food intake", "setting": "Wistar rats", "value": "did not exhibit any significant changes in the amount of food intake"}]}]}
